Experimental data published in the kinase profiling compilation of Christmann-Franck et al. (2016).

Experiments:
Assay in all cases: radiometric filter-binding kinase assay
MARK2 (human) = MARK2 (human) (UniProt Q7KZI7)
MAP3K11 (human) = MAP3K11 (human) (UniProt Q16584)
PIM1 (human) = PIM1 (human) (UniProt P11309)
MAPK12 (human) = MAPK12 (human) (UniProt P53778)
NTRK1 (human) = NTRK1 (human) (UniProt P04629)
PAK4 (human) = PAK4 (human) (UniProt O96013)
HIPK3 (human) = HIPK3 (human) (UniProt Q9H422)
PAK6 (human) = PAK6 (human) (UniProt Q9NQU5)
MAPK9 (human) = MAPK9 (human) (UniProt P45984)
PKN2 (human) = PKN2 (human) (UniProt Q16513)
EPHB3 (human) = EPHB3 (human) (UniProt P54753)
BRSK1 (human) = BRSK1 (human) (UniProt Q8TDC3)
PRKCZ (human) = PRKCZ (human) (UniProt Q05513)
MAP2K6 (human) = MAP2K6 (human) (UniProt P52564)
IRAK4 (human) = IRAK4 (human) (UniProt Q9NWZ3)
DYRK2 (human) = DYRK2 (human) (UniProt Q92630)
EPHA2 (human) = EPHA2 (human) (UniProt P29317)
MELK (human) = MELK (human) (UniProt Q14680)
MAPKAPK2 (human) = MAPKAPK2 (human) (UniProt P49137)
GSK3B (human) = GSK3B (human) (UniProt P49841)
MARK1 (human) = MARK1 (human) (UniProt Q9P0L2)
MAP3K9 (human) = MAP3K9 (human) (UniProt P80192)
EEF2K (human) = EEF2K (human) (UniProt O00418)
ERBB4 (human) = ERBB4 (human) (UniProt Q15303)
MARK4 (human) = MARK4 (human) (UniProt Q96L34)
[1] = test system: AKT1 (human), P31749 [S473D]
MAP2K2 (human) = MAP2K2 (human) (UniProt P36507)
MAP3K7 TAB1 (human) = MAP3K7 TAB1 (human) (UniProt Q15750+O43318)
AURKA (human) = AURKA (human) (UniProt O14965)
MAP3K5 (human) = MAP3K5 (human) (UniProt Q99683)
[2] = target: STK11 CAB39 STRADA (human) (UniProt Q9Y376+Q7RTN6+Q15831)
MST4 (human) = MST4 (human) (UniProt Q9P289)
PRKCA (human) = PRKCA (human) (UniProt P17252)
MAP3K1 (human) = MAP3K1 (human) (UniProt Q13233)
NUAK1 (human) = NUAK1 (human) (UniProt O60285)

Chain of IRAK4 (human) (Q9NWZ3 whole entry, looked up): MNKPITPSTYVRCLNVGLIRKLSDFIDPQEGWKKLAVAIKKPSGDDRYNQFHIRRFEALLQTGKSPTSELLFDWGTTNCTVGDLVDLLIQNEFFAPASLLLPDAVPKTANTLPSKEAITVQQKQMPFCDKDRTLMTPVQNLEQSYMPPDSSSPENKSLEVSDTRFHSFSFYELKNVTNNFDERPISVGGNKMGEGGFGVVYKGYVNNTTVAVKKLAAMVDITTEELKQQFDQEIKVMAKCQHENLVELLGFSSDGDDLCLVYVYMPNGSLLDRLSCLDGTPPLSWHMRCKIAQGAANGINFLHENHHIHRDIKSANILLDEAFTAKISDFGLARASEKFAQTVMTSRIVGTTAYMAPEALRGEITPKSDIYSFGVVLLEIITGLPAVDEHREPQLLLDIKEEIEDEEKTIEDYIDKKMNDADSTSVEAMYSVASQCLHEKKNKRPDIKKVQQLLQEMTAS
Chain of MAPK12 (human) (P53778 whole entry, looked up): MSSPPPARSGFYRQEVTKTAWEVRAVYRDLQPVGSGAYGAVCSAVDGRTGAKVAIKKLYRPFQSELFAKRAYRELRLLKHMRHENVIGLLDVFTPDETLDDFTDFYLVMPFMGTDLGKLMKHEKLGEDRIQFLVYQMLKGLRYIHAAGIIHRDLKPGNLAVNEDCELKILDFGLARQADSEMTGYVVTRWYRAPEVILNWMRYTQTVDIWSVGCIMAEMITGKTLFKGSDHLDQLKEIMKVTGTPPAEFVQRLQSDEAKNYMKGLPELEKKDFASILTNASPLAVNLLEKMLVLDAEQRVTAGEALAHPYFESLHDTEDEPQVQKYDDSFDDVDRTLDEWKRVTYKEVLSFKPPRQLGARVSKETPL
Chain of MAP3K1 (human) (Q13233 whole entry, looked up): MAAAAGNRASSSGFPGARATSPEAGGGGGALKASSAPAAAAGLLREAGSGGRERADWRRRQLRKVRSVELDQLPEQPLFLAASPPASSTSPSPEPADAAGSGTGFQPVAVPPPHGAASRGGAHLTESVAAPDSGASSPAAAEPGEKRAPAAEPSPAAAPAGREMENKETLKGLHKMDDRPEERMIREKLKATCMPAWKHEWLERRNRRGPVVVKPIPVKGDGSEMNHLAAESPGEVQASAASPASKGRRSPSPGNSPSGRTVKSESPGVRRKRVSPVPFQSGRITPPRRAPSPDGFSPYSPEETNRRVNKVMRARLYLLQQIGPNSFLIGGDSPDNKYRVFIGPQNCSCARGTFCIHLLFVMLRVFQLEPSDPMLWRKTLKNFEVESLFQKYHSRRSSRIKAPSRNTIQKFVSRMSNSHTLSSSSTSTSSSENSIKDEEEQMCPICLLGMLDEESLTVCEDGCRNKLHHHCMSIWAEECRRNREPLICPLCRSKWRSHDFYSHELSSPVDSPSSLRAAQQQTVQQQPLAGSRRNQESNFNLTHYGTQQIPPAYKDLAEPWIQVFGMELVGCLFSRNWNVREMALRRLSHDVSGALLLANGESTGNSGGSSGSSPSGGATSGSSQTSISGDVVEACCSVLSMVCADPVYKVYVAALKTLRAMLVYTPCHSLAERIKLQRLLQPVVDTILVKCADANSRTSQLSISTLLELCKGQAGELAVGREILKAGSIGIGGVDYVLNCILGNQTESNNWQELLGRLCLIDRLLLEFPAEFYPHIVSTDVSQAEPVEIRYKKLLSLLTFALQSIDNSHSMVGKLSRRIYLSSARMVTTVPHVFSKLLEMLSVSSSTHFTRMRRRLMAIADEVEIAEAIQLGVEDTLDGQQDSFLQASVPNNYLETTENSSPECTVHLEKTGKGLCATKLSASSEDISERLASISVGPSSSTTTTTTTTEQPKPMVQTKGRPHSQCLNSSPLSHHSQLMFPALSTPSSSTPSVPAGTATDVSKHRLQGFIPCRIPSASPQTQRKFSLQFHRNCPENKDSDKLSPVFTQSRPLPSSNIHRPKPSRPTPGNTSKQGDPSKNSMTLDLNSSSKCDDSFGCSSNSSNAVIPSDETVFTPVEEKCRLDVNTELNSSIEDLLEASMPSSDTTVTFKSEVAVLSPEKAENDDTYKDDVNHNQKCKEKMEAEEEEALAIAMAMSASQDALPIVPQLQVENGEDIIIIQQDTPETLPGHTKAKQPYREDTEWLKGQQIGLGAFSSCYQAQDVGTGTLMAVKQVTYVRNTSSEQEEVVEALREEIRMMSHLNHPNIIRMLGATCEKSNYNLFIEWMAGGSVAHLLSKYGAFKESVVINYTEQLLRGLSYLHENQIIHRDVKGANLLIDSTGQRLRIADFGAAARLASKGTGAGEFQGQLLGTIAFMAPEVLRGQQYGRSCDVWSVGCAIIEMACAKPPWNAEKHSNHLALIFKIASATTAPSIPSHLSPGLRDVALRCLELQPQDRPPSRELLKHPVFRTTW
Chain of PRKCZ (human) (Q05513 whole entry, looked up): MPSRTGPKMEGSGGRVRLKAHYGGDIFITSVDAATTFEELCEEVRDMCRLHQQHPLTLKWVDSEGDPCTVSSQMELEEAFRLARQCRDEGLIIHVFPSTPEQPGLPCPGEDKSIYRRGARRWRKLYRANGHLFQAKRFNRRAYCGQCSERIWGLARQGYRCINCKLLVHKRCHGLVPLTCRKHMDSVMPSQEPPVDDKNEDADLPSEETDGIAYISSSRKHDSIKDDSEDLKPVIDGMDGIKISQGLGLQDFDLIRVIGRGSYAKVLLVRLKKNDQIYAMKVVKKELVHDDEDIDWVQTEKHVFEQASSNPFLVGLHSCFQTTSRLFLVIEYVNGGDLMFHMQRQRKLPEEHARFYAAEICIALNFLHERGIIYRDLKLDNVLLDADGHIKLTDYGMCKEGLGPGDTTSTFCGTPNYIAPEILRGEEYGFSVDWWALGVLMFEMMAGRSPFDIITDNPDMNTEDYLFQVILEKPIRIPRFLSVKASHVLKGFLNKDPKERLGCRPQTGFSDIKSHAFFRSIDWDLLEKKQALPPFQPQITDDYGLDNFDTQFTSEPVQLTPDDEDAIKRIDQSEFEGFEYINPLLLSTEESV
Chain of AURKA (human) (O14965 whole entry, looked up): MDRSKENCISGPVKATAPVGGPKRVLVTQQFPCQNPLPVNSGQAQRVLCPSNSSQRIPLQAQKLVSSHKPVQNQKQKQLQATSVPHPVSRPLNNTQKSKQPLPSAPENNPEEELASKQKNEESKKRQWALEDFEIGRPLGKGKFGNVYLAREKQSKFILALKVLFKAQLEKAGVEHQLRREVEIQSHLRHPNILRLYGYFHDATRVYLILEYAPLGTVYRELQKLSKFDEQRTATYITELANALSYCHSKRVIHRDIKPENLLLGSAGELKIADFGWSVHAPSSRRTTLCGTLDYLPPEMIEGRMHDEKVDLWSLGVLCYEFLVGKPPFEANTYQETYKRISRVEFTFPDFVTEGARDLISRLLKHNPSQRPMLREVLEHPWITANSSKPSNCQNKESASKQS
Chain of MAP2K6 (human) (P52564 whole entry, looked up): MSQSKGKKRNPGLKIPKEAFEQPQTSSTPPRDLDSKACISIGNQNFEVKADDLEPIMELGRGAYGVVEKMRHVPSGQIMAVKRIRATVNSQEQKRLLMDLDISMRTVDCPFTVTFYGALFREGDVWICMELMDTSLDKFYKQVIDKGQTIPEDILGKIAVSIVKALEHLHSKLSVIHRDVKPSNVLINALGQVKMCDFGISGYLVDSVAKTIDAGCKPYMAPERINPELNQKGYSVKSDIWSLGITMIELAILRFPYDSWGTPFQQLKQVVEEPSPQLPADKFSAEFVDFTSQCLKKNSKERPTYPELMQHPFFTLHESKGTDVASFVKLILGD
Chain of MAP3K5 (human) (Q99683 whole entry, looked up): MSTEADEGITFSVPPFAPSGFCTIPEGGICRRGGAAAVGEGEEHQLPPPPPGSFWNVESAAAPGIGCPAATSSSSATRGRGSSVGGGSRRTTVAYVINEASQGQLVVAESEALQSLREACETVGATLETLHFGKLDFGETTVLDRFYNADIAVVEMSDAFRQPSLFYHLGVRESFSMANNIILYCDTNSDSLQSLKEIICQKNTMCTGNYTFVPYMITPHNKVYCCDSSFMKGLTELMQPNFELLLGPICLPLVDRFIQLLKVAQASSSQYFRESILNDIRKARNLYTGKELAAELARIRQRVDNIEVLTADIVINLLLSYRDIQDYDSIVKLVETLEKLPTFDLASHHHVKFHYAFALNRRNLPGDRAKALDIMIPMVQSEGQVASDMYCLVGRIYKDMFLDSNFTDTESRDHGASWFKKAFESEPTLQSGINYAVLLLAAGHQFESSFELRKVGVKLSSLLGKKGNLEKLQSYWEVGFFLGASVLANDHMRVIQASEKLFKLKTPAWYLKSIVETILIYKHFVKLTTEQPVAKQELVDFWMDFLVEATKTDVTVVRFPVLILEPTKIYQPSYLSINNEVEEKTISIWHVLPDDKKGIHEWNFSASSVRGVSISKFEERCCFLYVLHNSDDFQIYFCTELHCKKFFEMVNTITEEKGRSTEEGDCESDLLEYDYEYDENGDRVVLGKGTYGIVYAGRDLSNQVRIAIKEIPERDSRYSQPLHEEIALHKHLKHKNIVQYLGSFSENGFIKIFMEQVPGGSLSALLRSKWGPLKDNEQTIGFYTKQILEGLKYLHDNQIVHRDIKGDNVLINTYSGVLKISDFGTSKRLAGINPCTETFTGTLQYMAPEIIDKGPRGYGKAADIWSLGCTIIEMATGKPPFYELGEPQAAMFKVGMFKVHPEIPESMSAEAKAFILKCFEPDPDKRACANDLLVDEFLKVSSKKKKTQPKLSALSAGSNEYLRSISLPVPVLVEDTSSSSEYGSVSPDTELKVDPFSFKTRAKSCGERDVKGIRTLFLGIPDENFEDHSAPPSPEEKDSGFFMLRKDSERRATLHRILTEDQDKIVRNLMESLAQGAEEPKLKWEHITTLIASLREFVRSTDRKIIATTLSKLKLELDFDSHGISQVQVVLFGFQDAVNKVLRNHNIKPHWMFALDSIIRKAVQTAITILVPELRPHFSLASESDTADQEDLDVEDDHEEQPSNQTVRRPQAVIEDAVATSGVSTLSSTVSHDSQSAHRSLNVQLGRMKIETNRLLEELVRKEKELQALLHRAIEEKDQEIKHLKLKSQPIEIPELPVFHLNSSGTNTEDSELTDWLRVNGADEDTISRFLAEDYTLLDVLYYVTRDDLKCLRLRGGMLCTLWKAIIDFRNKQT

A residual activity (MARK2 (human); compound 1.0 µM) of 101%, a residual activity (MARK2 (human); compound 10.0 µM) of 101% and a residual activity (MAP3K11 (human); compound 1.0 µM) of 83% were found for `O=C(NOCC(O)CO)c1ccc(F)c(F)c1Nc1ccc(I)cc1Cl` (stereo not given) in this work. The residual activity (MAP3K11 (human); compound 10.0 µM) was 89%, the residual activity (PIM1 (human); compound 1.0 µM) was 102% and the residual activity (PIM1 (human); compound 10.0 µM) was 71%. For the same compound, the residual activity (MAPK12 (human); compound 1.0 µM) was 80%, the residual activity (MAPK12 (human); compound 10.0 µM) was 96% and the residual activity (NTRK1 (human); compound 1.0 µM) was 79%. The residual activity (NTRK1 (human); compound 10.0 µM) was 78%, the residual activity (PAK4 (human); compound 1.0 µM) was 98% and the residual activity (PAK4 (human); compound 10.0 µM) was 77%. The residual activity (HIPK3 (human); compound 1.0 µM) was 90%, the residual activity (HIPK3 (human); compound 10.0 µM) was 101% and the residual activity (PAK6 (human); compound 10.0 µM) was 103%. The residual activity (MAPK9 (human); compound 1.0 µM) was 88%, the residual activity (MAPK9 (human); compound 10.0 µM) was 92% and the residual activity (PKN2 (human); compound 1.0 µM) was 70%. For the same compound, the residual activity (PKN2 (human); compound 10.0 µM) was 79%, the residual activity (EPHB3 (human); compound 1.0 µM) was 113% and the residual activity (EPHB3 (human); compound 10.0 µM) was 82%. It also gave a residual activity (BRSK1 (human); compound 1.0 µM) of 98%, a residual activity (BRSK1 (human); compound 10.0 µM) of 101% and a residual activity (PRKCZ (human); compound 1.0 µM) of 89%. For the same compound, the residual activity (PRKCZ (human); compound 10.0 µM) was 91%, the residual activity (MAP2K6 (human); compound 1.0 µM) was 90% and the residual activity (MAP2K6 (human); compound 10.0 µM) was 67%. It also gave a residual activity (IRAK4 (human); compound 1.0 µM) of 77%, a residual activity (IRAK4 (human); compound 10.0 µM) of 91% and a residual activity (DYRK2 (human); compound 1.0 µM) of 107%. For the same compound, the residual activity (DYRK2 (human); compound 10.0 µM) was 111%, the residual activity (EPHA2 (human); compound 1.0 µM) was 112% and the residual activity (EPHA2 (human); compound 10.0 µM) was 105%. It also gave a residual activity (MELK (human); compound 1.0 µM) of 109%, a residual activity (MELK (human); compound 10.0 µM) of 106% and a residual activity (MAPKAPK2 (human); compound 1.0 µM) of 104%. The residual activity (MAPKAPK2 (human); compound 10.0 µM) was 102%, the residual activity (GSK3B (human); compound 1.0 µM) was 89% and the residual activity (GSK3B (human); compound 10.0 µM) was 89%. For the same compound, the residual activity (MARK1 (human); compound 1.0 µM) was 77%, the residual activity (MARK1 (human); compound 10.0 µM) was 71% and the residual activity (MAP3K9 (human); compound 1.0 µM) was 84%. For the same compound, the residual activity (MAP3K9 (human); compound 10.0 µM) was 85%, the residual activity (EEF2K (human); compound 1.0 µM) was 84% and the residual activity (EEF2K (human); compound 10.0 µM) was 92%. It also gave a residual activity (ERBB4 (human); compound 1.0 µM) of 86%, a residual activity (ERBB4 (human); compound 10.0 µM) of 82% and a residual activity (MARK4 (human); compound 1.0 µM) of 119%. The residual activity (MARK4 (human); compound 10.0 µM) was 108%, the residual activity ([1]; compound 10.0 µM) was 99% and the residual activity (MAP2K2 (human); compound 1.0 µM) was 55%. For the same compound, the residual activity (MAP2K2 (human); compound 10.0 µM) was 23%, the residual activity (MAP3K7 TAB1 (human); compound 1.0 µM) was 91% and the residual activity (MAP3K7 TAB1 (human); compound 10.0 µM) was 92%. For the same compound, the residual activity (AURKA (human); compound 1.0 µM) was 103%, the residual activity (AURKA (human); compound 10.0 µM) was 104% and the residual activity (MAP3K5 (human); compound 1.0 µM) was 102%. It also gave a residual activity (MAP3K5 (human); compound 10.0 µM) of 112%, a residual activity ([2]; compound 1.0 µM) of 80% and a residual activity ([2]; compound 10.0 µM) of 77%. The residual activity (MST4 (human); compound 1.0 µM) was 107%, the residual activity (MST4 (human); compound 10.0 µM) was 94% and the residual activity (PRKCA (human); compound 1.0 µM) was 93%. It also gave a residual activity (PRKCA (human); compound 10.0 µM) of 86%, a residual activity (MAP3K1 (human); compound 1.0 µM) of 88% and a residual activity (MAP3K1 (human); compound 10.0 µM) of 93%. It also gave a residual activity (NUAK1 (human); compound 1.0 µM) of 108% and a residual activity (NUAK1 (human); compound 10.0 µM) of 95%.
A residual activity (MARK2 (human); compound 1.0 µM) of 112%, a residual activity (MARK2 (human); compound 5.0 µM) of 102% and a residual activity (MAP3K11 (human); compound 1.0 µM) of 104% were found for `C=C1C(=O)OC2C1CC/C(C)=C/CCC1(C)OC21` (stereo not given) in this work. For the same compound, the residual activity (MAP3K11 (human); compound 5.0 µM) was 116%, the residual activity (PIM1 (human); compound 1.0 µM) was 97% and the residual activity (PIM1 (human); compound 5.0 µM) was 108%. For the same compound, the residual activity (MAPK12 (human); compound 1.0 µM) was 108%, the residual activity (MAPK12 (human); compound 5.0 µM) was 115% and the residual activity (NTRK1 (human); compound 1.0 µM) was 106%. It also gave a residual activity (NTRK1 (human); compound 5.0 µM) of 83%, a residual activity (PAK4 (human); compound 1.0 µM) of 93% and a residual activity (PAK4 (human); compound 5.0 µM) of 104%. The residual activity (HIPK3 (human); compound 1.0 µM) was 110%, the residual activity (HIPK3 (human); compound 5.0 µM) was 122% and the residual activity (PAK6 (human); compound 1.0 µM) was 119%. For the same compound, the residual activity (PAK6 (human); compound 5.0 µM) was 115%, the residual activity (MAPK9 (human); compound 1.0 µM) was 114% and the residual activity (MAPK9 (human); compound 5.0 µM) was 110%. The residual activity (PKN2 (human); compound 1.0 µM) was 106%, the residual activity (PKN2 (human); compound 5.0 µM) was 102% and the residual activity (EPHB3 (human); compound 1.0 µM) was 95%. It also gave a residual activity (EPHB3 (human); compound 5.0 µM) of 115%, a residual activity (BRSK1 (human); compound 1.0 µM) of 109% and a residual activity (BRSK1 (human); compound 5.0 µM) of 108%. The residual activity (PRKCZ (human); compound 1.0 µM) was 117%, the residual activity (PRKCZ (human); compound 5.0 µM) was 98% and the residual activity (MAP2K6 (human); compound 1.0 µM) was 96%. It also gave a residual activity (MAP2K6 (human); compound 5.0 µM) of 92%, a residual activity (IRAK4 (human); compound 1.0 µM) of 106% and a residual activity (IRAK4 (human); compound 5.0 µM) of 97%. It also gave a residual activity (DYRK2 (human); compound 1.0 µM) of 113%, a residual activity (DYRK2 (human); compound 5.0 µM) of 101% and a residual activity (EPHA2 (human); compound 1.0 µM) of 104%. It also gave a residual activity (EPHA2 (human); compound 5.0 µM) of 99%, a residual activity (MELK (human); compound 1.0 µM) of 138% and a residual activity (MELK (human); compound 5.0 µM) of 100%. The residual activity (MAPKAPK2 (human); compound 1.0 µM) was 72%, the residual activity (MAPKAPK2 (human); compound 5.0 µM) was 64% and the residual activity (GSK3B (human); compound 1.0 µM) was 106%. For the same compound, the residual activity (GSK3B (human); compound 5.0 µM) was 105%, the residual activity (MARK1 (human); compound 1.0 µM) was 100% and the residual activity (MARK1 (human); compound 5.0 µM) was 94%. It also gave a residual activity (MAP3K9 (human); compound 1.0 µM) of 117%, a residual activity (MAP3K9 (human); compound 5.0 µM) of 95% and a residual activity (EEF2K (human); compound 1.0 µM) of 107%. The residual activity (EEF2K (human); compound 5.0 µM) was 91%, the residual activity (ERBB4 (human); compound 1.0 µM) was 98% and the residual activity (ERBB4 (human); compound 5.0 µM) was 90%. It also gave a residual activity (MARK4 (human); compound 1.0 µM) of 111%, a residual activity (MARK4 (human); compound 5.0 µM) of 93% and a residual activity ([1]; compound 1.0 µM) of 107%. It also gave a residual activity ([1]; compound 5.0 µM) of 106%, a residual activity (MAP2K2 (human); compound 5.0 µM) of 109% and a residual activity (MAP3K7 TAB1 (human); compound 1.0 µM) of 109%. The residual activity (AURKA (human); compound 5.0 µM) was 115%, the residual activity (MAP3K5 (human); compound 1.0 µM) was 98% and the residual activity (MAP3K5 (human); compound 5.0 µM) was 125%. The residual activity ([2]; compound 1.0 µM) was 132%, the residual activity ([2]; compound 5.0 µM) was 106% and the residual activity (MST4 (human); compound 1.0 µM) was 88%. For the same compound, the residual activity (MST4 (human); compound 5.0 µM) was 94%, the residual activity (PRKCA (human); compound 1.0 µM) was 108% and the residual activity (PRKCA (human); compound 5.0 µM) was 108%. The residual activity (MAP3K1 (human); compound 1.0 µM) was 112%, the residual activity (MAP3K1 (human); compound 5.0 µM) was 120% and the residual activity (NUAK1 (human); compound 1.0 µM) was 130%. For the same compound, the residual activity (NUAK1 (human); compound 5.0 µM) was 111%.
